Values after ≈ are worked out from the molar mass of the structure shown. Values belong to the compound of their own block, whether it stands above or below them.
Tests used:
Rattus norvegicus [1] = assay: AUC (0 to 6 hrs) in rat at 10 mg/kg, po; format: ADME, organism-based, Plasma; set-up: time < 6 hr, dose 10 mg/kg, route oral; conditions: in vivo
Rattus norvegicus [2] = assay: Terminal half life in Sprague-Dawley rat at 3 mg/kg, iv; format: ADME, organism-based; set-up: dose 3 mg/kg, route intravenous; conditions: in vivo
[3] = Intrinsic clearance in rat hepatocytes assessed per 10^6 cells at 1 uM up to 180 mins; format: ADME, cell-based, Hepatocyte; conditions: read-out: CLH
Rattus norvegicus [4] = assay: Oral bioavailability in Sprague-Dawley rat at 3 mg/kg; format: ADME, organism-based; conditions: in vivo
[5] = Solubility of the compound at pH 7.4; format: physicochemical; conditions: buffer
Caco-2 = assay: Apparent permeability of the compound in human Caco2 cells; format: ADME, cell-based
[6] = Intrinsic clearance in human hepatocytes assessed per 10^6 cells at 1 uM up to 180 mins; format: ADME, cell-based, Hepatocyte; conditions: read-out: CLH
[7] = Lipophilicity, log D of the compound; format: physicochemical; conditions: octanol/water
Nucleic Acid = assay: Ratio of drug level in brain to plasma in Sprague-Dawley rat at 3 mg/kg, po after 3 hrs; format: ADME, organism-based; set-up: dose 3 mg/kg, route oral
[8] = Dissociation constant, pKa of the compound; format: physicochemical

AUC (Rattus norvegicus [1]): < 1 µM·h
Compound: COc1cccc(-c2cccc([C@]3(C)CC(=O)N(C)C(=N)N3)c2)c1

AUC (Rattus norvegicus [1]): 8.6 µM·h
Compound: CN1C(=N)N[C@](C)(c2cccc(-c3cccc(C#N)c3)c2)CC1=O

beta t1/2 (Rattus norvegicus [2]): 2.8 h
hepatocyte CLint at 1 µM [3]: 4.9 µL/min/1e6 cells
F (Rattus norvegicus [4]): 69%
solubility [5]: 200 µM (≈ 74.6 µg/mL)
Papp (Caco-2): 15.3 ×10⁻⁶ cm/s
hepatocyte CLint at 1 µM [6]: 2.7 µL/min/1e6 cells
logD [7]: 1.8
BPR (Nucleic Acid): 3
pKa [8]: 7.5
Compound: CC#Cc1cncc(-c2cc(Cl)c([C@]3(C)CC(=O)N(C)C(=N)N3)s2)c1

AUC (Rattus norvegicus [1]): < 1 µM·h
Compound: CN1C(=N)N[C@](C)(c2cccc(-c3cccnc3)c2)CC1=O
